# In ChEMBL document CHEMBL1201862, “PubChem BioAssay data set” (2004):
#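 All cell lines were grown in 96-well plates and treated with compound for 48 hours. At the GI50, growth is halved.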 Activity calls are given as the source filed them. No stated cut-off is given here; in the data, active = GI50 up to about 1.1 µM and inactive = higher.
# What was measured:
# Experiment in all cases: NCI tumour cell line growth inhibition, 48 h
# 786-0 = system: 786-0
# A549 = system: A549
# COLO 205 = system: COLO 205
# K562 = system: K562
# LOX IMVI = system: LOX IMVI
# M14 = system: M14
# MOLT-4 = system: MOLT-4
# NCI-H522 = system: NCI-H522
# RPMI-8226 = system: RPMI-8226
# RXF 393 = system: RXF 393
# SF-268 = system: SF-268
# SK-MEL-2 = system: SK-MEL-2
# SW-620 = system: SW-620
# TK-10 = system: TK-10
# U-251 = system: U-251
# UACC-62 = system: UACC-62
# HCT-116 = system: HCT-116
# SK-OV-3 = system: SK-OV-3
Structure (SMILES),GI50 (786-0),GI50 (A549),GI50 (COLO 205),GI50 (K562),GI50 (LOX IMVI),GI50 (M14),GI50 (MOLT-4),GI50 (NCI-H522),GI50 (RPMI-8226),GI50 (RXF 393),GI50 (SF-268),GI50 (SK-MEL-2),GI50 (SW-620),GI50 (TK-10),GI50 (U-251),GI50 (UACC-62),GI50 (HCT-116),GI50 (SK-OV-3)
COc1ccc(S(=O)(=O)NNS(C)(=O)=O)cc1OC,> 100 µM (inactive),> 100 µM (inactive),> 100 µM (inactive),> 100 µM (inactive),> 100 µM (inactive),> 100 µM (inactive),> 100 µM (inactive),> 100 µM (inactive),> 100 µM (inactive),31.3 µM (inactive),79.4 µM (inactive),> 100 µM (inactive),> 100 µM (inactive),> 100 µM (inactive),> 100 µM (inactive),> 100 µM (inactive),,
OC1=CN=COc2ccccc21,> 100 µM (inactive),> 100 µM (inactive),> 100 µM (inactive),> 100 µM (inactive),> 100 µM (inactive),> 100 µM (inactive),> 100 µM (inactive),,> 100 µM (inactive),> 100 µM (inactive),> 100 µM (inactive),> 100 µM (inactive),> 100 µM (inactive),> 100 µM (inactive),> 100 µM (inactive),> 100 µM (inactive),> 100 µM (inactive),50.6 µM (inactive)
CCCCCCCCCCCCCP(=O)(NCC(N)=O)OCC (centres undefined),15.4 µM (inactive),20.3 µM (inactive),17.2 µM (inactive),,> 10 µM (inactive),16.9 µM (inactive),,> 10 µM (inactive),,22.5 µM (inactive),19.1 µM (inactive),16.3 µM (inactive),19.9 µM (inactive),18.7 µM (inactive),17.3 µM (inactive),16.3 µM (inactive),14.8 µM (inactive),21.3 µM (inactive)
CC(=O)CC(=O)NC=O,> 100 µM (inactive),> 100 µM (inactive),> 100 µM (inactive),> 100 µM (inactive),,> 100 µM (inactive),> 100 µM (inactive),> 100 µM (inactive),> 100 µM (inactive),> 100 µM (inactive),> 100 µM (inactive),> 100 µM (inactive),> 100 µM (inactive),> 100 µM (inactive),> 100 µM (inactive),> 100 µM (inactive),> 100 µM (inactive),> 100 µM (inactive)
CC[C@@H]1OC2(C)CC(S(=O)(=O)c3ccccc3)CC1O2 (some centres undefined),> 100 µM (inactive),> 100 µM (inactive),> 100 µM (inactive),> 100 µM (inactive),,> 100 µM (inactive),> 100 µM (inactive),> 100 µM (inactive),> 100 µM (inactive),> 100 µM (inactive),> 100 µM (inactive),> 100 µM (inactive),> 100 µM (inactive),,> 100 µM (inactive),> 100 µM (inactive),> 100 µM (inactive),> 100 µM (inactive)
CC(=O)C1CC2(c3ccccc3)C(=O)c3ccccc3N2O1 (centres undefined),> 100 µM (inactive),> 100 µM (inactive),> 100 µM (inactive),> 100 µM (inactive),,> 100 µM (inactive),> 100 µM (inactive),> 100 µM (inactive),> 100 µM (inactive),> 100 µM (inactive),> 100 µM (inactive),,> 100 µM (inactive),,> 100 µM (inactive),> 100 µM (inactive),> 100 µM (inactive),> 100 µM (inactive)
COCC(C)(C)/N=C/N1Cc2cc3ccccc3nc2C1,> 100 µM (inactive),> 100 µM (inactive),> 100 µM (inactive),> 100 µM (inactive),,> 100 µM (inactive),> 100 µM (inactive),> 100 µM (inactive),> 100 µM (inactive),> 100 µM (inactive),> 100 µM (inactive),> 100 µM (inactive),> 100 µM (inactive),> 100 µM (inactive),> 100 µM (inactive),> 100 µM (inactive),> 100 µM (inactive),> 100 µM (inactive)
O=C1/C(=C/c2ccccc2)CN(C(=O)Oc2ccccc2)C/C1=C\c1ccccc1,10.5 µM (inactive),> 100 µM (inactive),> 100 µM (inactive),7.13 µM (inactive),5.01 µM (inactive),21.8 µM (inactive),9.29 µM (inactive),23.2 µM (inactive),0.221 µM (active),11.1 µM (inactive),24.5 µM (inactive),15.6 µM (inactive),20.2 µM (inactive),17 µM (inactive),18.7 µM (inactive),46.3 µM (inactive),6.81 µM (inactive),
CC12C(=O)N(CCN)C(=O)C1C1c3ccccc3C2c2ccccc21 (centres undefined),> 100 µM (inactive),> 100 µM (inactive),> 100 µM (inactive),> 100 µM (inactive),,> 100 µM (inactive),> 100 µM (inactive),> 100 µM (inactive),> 100 µM (inactive),,> 100 µM (inactive),> 100 µM (inactive),> 100 µM (inactive),> 100 µM (inactive),> 100 µM (inactive),> 100 µM (inactive),> 100 µM (inactive),> 100 µM (inactive)
COC1C2c3cc4c(cc3CC(C#N)(c3ccccc32)N1C(=O)c1ccccc1)OCO4 (centres undefined),> 100 µM (inactive),,> 100 µM (inactive),54.6 µM (inactive),> 100 µM (inactive),> 100 µM (inactive),97.5 µM (inactive),87.3 µM (inactive),21 µM (inactive),32.2 µM (inactive),> 100 µM (inactive),> 100 µM (inactive),> 100 µM (inactive),> 100 µM (inactive),> 100 µM (inactive),4.94 µM (inactive),> 100 µM (inactive),> 100 µM (inactive)
Cn1c2ccccc2n2c(=O)c3c(c(C#N)c12)CCCC3,> 100 µM (inactive),> 100 µM (inactive),> 100 µM (inactive),> 100 µM (inactive),> 100 µM (inactive),> 100 µM (inactive),> 100 µM (inactive),,> 100 µM (inactive),> 100 µM (inactive),> 100 µM (inactive),> 100 µM (inactive),> 100 µM (inactive),> 100 µM (inactive),> 100 µM (inactive),,> 100 µM (inactive),> 100 µM (inactive)
CCOC(=O)C(C)(C)Oc1ccc2c(-c3ccc(Cl)cc3)cc(=O)oc2c1,> 100 µM (inactive),> 100 µM (inactive),> 100 µM (inactive),> 100 µM (inactive),> 100 µM (inactive),> 100 µM (inactive),> 100 µM (inactive),,> 100 µM (inactive),> 100 µM (inactive),> 100 µM (inactive),> 100 µM (inactive),> 100 µM (inactive),> 100 µM (inactive),> 100 µM (inactive),> 100 µM (inactive),> 100 µM (inactive),
Nc1ccc(Nc2nc(F)nc(-c3c4ccccc4c4n3CCS4)n2)cc1,15.7 µM (inactive),10.5 µM (inactive),19.1 µM (inactive),> 10 µM (inactive),10.4 µM (inactive),17 µM (inactive),11.2 µM (inactive),14 µM (inactive),,16 µM (inactive),15.7 µM (inactive),14.1 µM (inactive),13 µM (inactive),19.6 µM (inactive),14.7 µM (inactive),,14.6 µM (inactive),15.3 µM (inactive)
Cc1cc(Cl)ccc1NC1=NC(=O)C(CC(=O)Nc2ccc([N+](=O)[O-])cc2[N+](=O)[O-])S1 (centres undefined),34.8 µM (inactive),27.5 µM (inactive),36.6 µM (inactive),27.6 µM (inactive),34.9 µM (inactive),24.2 µM (inactive),19.4 µM (inactive),,17.9 µM (inactive),,38 µM (inactive),20.5 µM (inactive),32.9 µM (inactive),48.1 µM (inactive),23.3 µM (inactive),23.8 µM (inactive),,25.2 µM (inactive)
CCC(C)CC(C)CC(C)/C=C(\C)C1=C(C)CC(C)(O)O1 (centres undefined),9.53 µM (inactive),85.7 µM (inactive),> 100 µM (inactive),46.7 µM (inactive),> 100 µM (inactive),> 100 µM (inactive),35.7 µM (inactive),42.2 µM (inactive),24.4 µM (inactive),88.9 µM (inactive),,,> 100 µM (inactive),> 100 µM (inactive),61.8 µM (inactive),> 100 µM (inactive),41 µM (inactive),> 100 µM (inactive)
C[C@@H]1C2=CC[C@@]3(C)C(CCC3[C@H](C)[C@H]3C[C@@]4(C)O[C@@](c5cccnc5)(O3)OC4(C)C)[C@@H]2C2OC2[C@@]12CCC(=O)O2 (some centres undefined),38.2 µM (inactive),67.8 µM (inactive),30 µM (inactive),27.5 µM (inactive),31.5 µM (inactive),26.1 µM (inactive),,29.3 µM (inactive),29.2 µM (inactive),,> 100 µM (inactive),25.2 µM (inactive),37.7 µM (inactive),44.8 µM (inactive),35.6 µM (inactive),30.3 µM (inactive),40.8 µM (inactive),39.9 µM (inactive)
COC(=O)[C@@]12OC[C@]34C([C@@H](O)C1O)[C@@]1(C)CC(=O)C(O)=C(C)C1C[C@H]3OC(=O)[C@H](OC(=O)/C=C(/c1ccccc1)C(F)(F)F)[C@H]42 (some centres undefined),7.93 µM (inactive),4.33 µM (inactive),6.67 µM (inactive),4.93 µM (inactive),,3.54 µM (inactive),0.998 µM (active),2.42 µM (inactive),1.56 µM (inactive),6.05 µM (inactive),8.81 µM (inactive),8.26 µM (inactive),,7.74 µM (inactive),4.41 µM (inactive),2.05 µM (inactive),2.43 µM (inactive),7.29 µM (inactive)
